Results reported in patent US5698547A, “Cephalosporin antibiotics” (Microcide Pharmaceuticals, Inc., priority 1995, dated 1997).
Values after ≈ are worked out from the molar mass of the structure shown. Structures can show the parent of a compound that is named as a salt.

Experiments:
[1] = tested on: S. aureus 76 (Meth^R) (lac^+); assay: MIC by agar dilution, S. aureus 76 (Meth^R) (lac^+); format: cell-based; conditions: Staphylococcus aureus, read-out: MIC
Description: (§1) The compounds of the invention were evaluated against several β-lactamresistant bacteria strains by determining the minimum inhibitory concentration (MIC, μg/ml) of each compound with respect to each strain. The MIC, the lowest concentration of antibiotic which inhibits growth of the test organism, was determined by the agar dilution method.
(§2) To determine the MIC for bacterial isolates, the test compound was incorporated in a series of two-fold dilutions into liquified Mueller-Hinton agar. Upon solidification, a number of different bacterial strains were spot inoculated with a replicating device onto the agar surface. […] The procedures used in these studies have been standardized by the National Committee for Clinical Laboratory Standards (NCCLS), as per the NCCLS publication entitled METHODS FOR DILUTION ANTIMICROBIAL SUSCEPTIBILITY TESTS (1991), which is incorporated herein by reference.
(§3) Aliquots of antimicrobial agents were prepared in phosphate buffered saline (PBS) at pH 7.2. Tween 20 or DMSO was used as a solubilizing vehicle as needed. Standard methods of vortexing, sonicating and gentle heat were used to facilitate solubilizing the test agent. Typically, the concentration of the stock solution was 10× that of the highest drug concentration tested. A 1.28 mg/mL stock solution was used with a subsequent highest working concentration of 128 μg/mL. Serial two-fold dilutions were done through ≤0.25 μg/mL. Each drug level was tested in duplicate. Two-fold drug dilutions were done in sterile 50 mL tubes with a final drug volume of 5 mL. Upon the addition of 45 mL of molten agar, a 10-fold dilution resulted. Two, 25 mL. plates were then poured into 15×150 mm square Petri plates with grids and allowed to harden.
(§4) A control plate with a reference drug, either cefotaxime, vancomycin or imipenem, was used as the positive growth control. Stock concentrations of reference antibiotics were prepared and frozen at -80° C. Upon preparation, the control plates were sealed and stored in the refrigerator for up to 1 week prior to use; however, imipenem control plates had to be prepared just prior to use. All test plates were used within 24 hours of preparation.
(§5) Satisfactory results were obtained where the inoculum contained about 10^4 colony forming units (cfu) ±0.5 logs. Starting with pure cultures of the test isolates on agar plates, a few isolated colonies were transferred to a tube of nutrient broth and allowed to grow 4-6 hours at 35°-36° C. to reach log-phase growth. Dropwise addition of the broth culture to PBS was done to match a 0.5 McFarland turbidity standard equal to 10^8 cfu/mL. This was further diluted ten-fold in PBS to reach a working inoculum concentration of 10^7 cfu/mL. When 1 μL of the working inoculum was applied to the agar surface a concentration of about 10^4 cfu per spot was obtained.
(§6) Disposable sterile 1 μL loops were used to inoculate test plates, with each isolate in a designated grid on the agar plate. An alternate method of inoculation involved the use of a replica plater, a device with 48 steel pins allowing the simultaneous inoculation of multiple isolates. After the spots had dried, the plates were incubated at 35°-36° C. for 16-20 hours. Endpoints were assessed as the minimum inhibitory concentration (MIC) of antimicrobial agent.

[2] = tested on: methicillin-susceptible S. aureus strain ATCC 13709; assay: murine model for lethal bacteremic peritonitis; format: in vivo, female Swiss-Webster mice; conditions: 72 h, subcutaneous
Description: Groups of 5 female Swiss-Webster mice (Simonsen, Gilroy, Calif.) each are challenged by the intraperitoneal (IP) route with tenfold increments of a bacterial inoculum. This permits calculation of the mean lethal dose (LD50) and the LD100. For preliminary evaluation of a new antibiotic, mice are challenged IP with an LD100 titer of bacteria. In two equal doses administered at the time of bacterial challenge and 2 hours later, groups of 10 mice each are treated subcutaneously with two-fold increments of the test drug and an antibiotic of known efficacy in mice and humans (i.e., positive control). Mice are observed for 72 h. Those alive at 72 h are considered long term survivors. The total drug dose in mg/kg that protects 50% of mice in a group from death is termed the mean protective dose (PD50). PD50 s are similarly determined for several pathogens. The quantitative endpoints for the new drug are then compared with those obtained with reference antibiotics.
Six ten-fold dilutions of inoculum suspended in 0.5 mL of sterilized 7% hog gastric mucin (Sigma) are injected IP in groups of 5 mice each. A control group of 5 mice receive mucin alone. Mice are observed for 72 h. Those alive at 72 h are considered long term survivors. The mean lethal dose (LD50) and 100% lethal dose (LD100) are determined by the probit test.
For antibiotic efficacy studies, mice are challenged IP with bacterial titers that will afford an LD100 for the test strain. In two equal doses administered at the time of bacterial challenge and 2 hours later, groups of 10 mice each are treated by the subcutaneous route (SC) with twofold increments of the test antibiotic; another group is treated similarly with a reference antibiotic of known efficacy in animals and man. Drug doses can range from 0.01 to 512 mg/kg. If the drug is poorly soluble, Tween 20 or propylene glycol will be employed to solubilize the drug. Animals are observed for 72 h. The 50% protective dose (PD50) is calculated in mg/kg by the probit method. The PD50 is the same as the 50% effective dose (ED50) and the 50% curative dose (CD50). Samples of blood from the hearts of all animals that die and from half the mice that survive are cultured on brain-heart infusion agar. Animals that received a protective dosage of the test drug will be alive at 72 h, although they may appear moderately ill to very ill during the observation period. […] Most of these mice will die within 6 to 48 h. Those alive at 72 h will be considered long term survivors.
(Compound numbers correspond to those in MIC tables; data
reported for challenge with methicillin-susceptible S. aureus

S. haemolyticus (Meth^R) = assay: MIC by agar dilution, S. haemolyticus (Meth^R); format: cell-based; conditions: Staphylococcus haemolyticus, read-out: MIC
Description: as §1, §2, §3, §4, §5, §6

E. faecalis ATCC 29212 = assay: MIC by agar dilution, E. faecalis ATCC 29212; format: cell-based; conditions: Enterococcus faecalis, ATCC29212, read-out: MIC
Description: as §1, §2, §3, §4, §5, §6

E. faecium ATCC 35667 = assay: MIC by agar dilution, E. faecium ATCC 35667; format: cell-based; conditions: Enterococcus faecium, ATCC35667, read-out: MIC
Description: as §1, §2, §3, §4, §5, §6

[3] = tested on: S. aureus Col (Meth^R) (lac^-); assay: MIC by agar dilution, S. aureus Col (Meth^R) (lac^-); format: cell-based; conditions: Staphylococcus aureus; agar dilution; S. aureus Col (Meth^R) (lac^-); read-out: MIC
Summary of the method: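 Log-phase isolates were spot-inoculated at about 10^4 cfu onto Mueller-Hinton agar carrying duplicate two-fold compound levels, 128 μg/mL to ≤0.25 μg/mL, following NCCLS (1991). Plates were read after 16-20 h at 35°-36° C. The lowest growth-inhibiting concentration gave the MIC (μg/ml).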

[4] = tested on: S. aureus Col8A (Meth^S) (lac^-); assay: MIC by agar dilution, S. aureus Col8A (Meth^S) (lac^-); format: cell-based; conditions: Staphylococcus aureus; agar dilution; S. aureus Col8A (Meth^S) (lac^-); read-out: MIC
Description: as §1, §2, §3, §4, §5, §6
The novel agents of this invention are notable for their enhanced activity against S. aureus Col and Enterococci (E. faecium and E. faecalis). The S. aureus Col strain is a high-level PBP2a producer, whereas S. aureus Col 8A, its isogenic partner, lacks PBP2a. […] Thus, the compounds of the present invention are effective against PBP2a-producing bacteria.

P. aeruginosa ATCC 27853 = assay: MIC by agar dilution, P. aeruginosa ATCC 27853; format: cell-based; conditions: Pseudomonas aeruginosa, ATCC27853, read-out: MIC
Description: as §1, §2, §3, §4, §5, §6

S. aureus ATCC 29213 = assay: MIC by agar dilution, S. aureus ATCC 29213; format: cell-based; conditions: Staphylococcus aureus, ATCC29213; agar dilution; S. aureus ATCC 29213; read-out: MIC
Description: as §1, §2, §3, §4, §5, §6

Row | SMILES | Mortality ([2]; dose 0.625 mg/kg) | Mortality ([2]; dose 1.25 mg/kg) | Mortality ([2]; dose 2.5 mg/kg) | MIC [3] [µg/mL] | MIC (S. aureus ATCC 29213) [µg/mL] | Mortality ([2]; dose 5 mg/kg) | Mortality ([2]; dose 10 mg/kg) | other results
1 | N=C(N)SCCSCC(=O)N[C@@H]1C(=O)N2C(C(=O)O)=C(Sc3ccc(CSC(=N)N)cc3CSC(=N)N)CS[C@H]12 [Cmpd 142, (7R)-7-[((2-(isothiouronium)ethylthio)acetyl)amino]-3-[2,4-(bis)isothiouroniummethylphenylthio]-3-cephem-4-carboxylate, trifluoroacetic acid salt] | 0/10 | 0/10 | 0/10 | 4 | 0.25 | – | – | MIC [1]: 8 µg/mL; ED50 ([2]; Staphylococcus aureus, ATCC13709, sc, two equal doses, S. aureus ATCC 13709 IP challenge, read-out: ED50): < 0.156 mg/kg; Mortality ([2]; dose 0.1562 mg/kg): 3/10; Mortality ([2]; dose 0.3125 mg/kg): 1/10; MIC (S. haemolyticus (Meth^R)): 8 µg/mL; MIC (E. faecalis ATCC 29212): 1 µg/mL; MIC (E. faecium ATCC 35667): 0.5 µg/mL; MIC [4]: 0.25 µg/mL; MIC (P. aeruginosa ATCC 27853): > 32 µg/mL
2 | O=C(COc1ccccc1)N[C@@H]1C(=O)N2C(C(=O)O)=C(Sc3ccnn3-c3ccccc3)CS[C@H]12 [Cmpd 112, (7R)-7-[(phenyloxyacetyl)amino]-3-(1-N-phenylpyrazol-5-ylthio)-3-cephem-4-carboxylic acid] | – | – | – | 4 (≈ 7.87 µM) | ≤ 0.06 | – | – | MIC [4]: ≤ 0.06 µg/mL
3 | Nc1nc(/C(=N/OCC2CC2)C(=O)N[C@@H]2C(=O)N3C(C(=O)O)=C(Sc4ccnn4-c4ccccc4)CS[C@H]23)cs1 [Cmpd 108, (7R)-7-[(Z)-2-(2-aminothiazol-4-yl)-2-(cyclopropylmethyloxyimino)acetamido]-3-(1-N-phenylpyrazol-5-ylthio)-3-cephem-4-carboxylic acid] | 9/10 | 8/10 | 9/10 | 4 (≈ 6.69 µM) | – | 10/10 | 10/10 | –
4 | CCC(CC)O/N=C(\C(=O)N[C@@H]1C(=O)N2C(C(=O)O)=C(Sc3ccnn3-c3ccccc3)CS[C@H]12)c1csc(N)n1 [Cmpd 104, (7R)-7-[(Z)-2-(aminothiazol-4-yl)-2-(3-pentyloxyimino)acetamido]-3-(1-N-phenylpyrazol-5-ylthio)-3-cephem-4-carboxylic acid] | 6/10 | 10/10 | 8/10 | 2 (≈ 3.26 µM) | – | 8/10 | 9/10 | –
5 | O=C(Cc1ccccc1)N[C@@H]1C(=O)N2C(C(=O)O)=C(Sc3ccnn3-c3ccccc3)CS[C@H]12 [Cmpd 87, (7R)-7-[(Phenylacetyl)amino]-3-(1-N-phenylpyrazol-5-ylthio)-3-cephem-4-carboxylic acid] | – | – | – | 1 (≈ 2.03 µM) | – | – | – | Mortality ([2]; dose 2 mg/kg): 4/10; Mortality ([2]; dose 4 mg/kg): 3/10; Mortality ([2]; dose 8 mg/kg): 0/10; Mortality ([2]; dose 16 mg/kg): 0/10
6 | CSCC(=O)N[C@@H]1C(=O)N2C(C(=O)O)=C(Sc3ccnn3-c3ccccc3)CS[C@H]12 [Cmpd 106, (7R)-7-[(methylthioacetyl)amino]-3-(1-N-phenylpyrazol-5-ylthio)-3-cephem-4-carboxylic acid] | 6/10 | 2/10 | 1/10 | 1 (≈ 2.16 µM) | – | – | – | Mortality ([2]; dose 0.1562 mg/kg): 9/10; Mortality ([2]; dose 0.3125 mg/kg): 9/10
7 | N#CCC(=O)N[C@@H]1C(=O)N2C(C(=O)O)=C(Sc3ccnn3-c3ccccc3)CS[C@H]12 [Cmpd 88, (7R)-7-[(Cyanoacetyl)amino]-3-(1-N-phenylpyrazol-5-ylthio)-3-cephem-4-carboxylic acid] | 2/10 | 1/10 | 0/10 | 4 (≈ 9.06 µM) | – | 0/10 | 0/10 | –
8 | O=C(CS/C=C\Cl)N[C@@H]1C(=O)N2C(C(=O)O)=C(Sc3ccnn3-c3ccccc3)CS[C@H]12 [Cmpd 131, (7R)-7-[((Z-2-Chlorovinyl)thioacetyl)amino]-3-(1-N-phenylpyrazol-5-ylthio)-3-cephem-4-carboxylic acid] | 9/10 | 7/10 | 4/10 | 1 (≈ 1.96 µM) | < 0.06 | 0/10 | 0/10 | –
9 | O=C(CC1CC1)N[C@@H]1C(=O)N2C(C(=O)O)=C(Sc3ccnn3-c3ccccc3)CS[C@H]12 [Cmpd 107, (7R)-7-[(cyclopropylacetyl)amino]-3-(1-N-phenylpyrazol-5-ylthio)-3-cephem-4-carboxylic acid] | 8/10 | 6/10 | 5/10 | 4 (≈ 8.76 µM) | – | 0/10 | 0/10 | –
10 | O=C(Cc1ccccc1)N[C@@H]1C(=O)N2C(C(=O)O)=C(Sc3cccnc3-c3ccccc3)CS[C@H]12 [Cmpd 81, (7R)-7-[(Phenylacetyl)amino]-3-(2-phenylpyridin-3-ylthio)-3-cephem-4-carboxylic acid] | – | – | – | 2 (≈ 3.97 µM) | – | – | – | Mortality ([2]; dose 2 mg/kg): 8/10; Mortality ([2]; dose 4 mg/kg): 10/10; Mortality ([2]; dose 8 mg/kg): 5/10; Mortality ([2]; dose 16 mg/kg): 2/10
